From PubChem BioAssay (NCI)
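Results reflect a 48-hour exposure of cells in 96-well plates to compound at five concentrations. Abbreviation: GI50, concentration required for 50% inhibition of growth. TGI: concentration producing complete growth inhibition.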

Columns and labels:
Assay in all cases: NCI-60 cell line screen, 48 h
[1] = system: HT29 colon
[2] = system: M14 melanoma
[3] = system: 786-0 renal
[4] = system: SW-620 colon
[5] = system: SNB-19 CNS
[6] = system: SF-295 CNS
[7] = system: IGROV1 ovarian
[8] = system: SNB-75 CNS
[9] = system: U251 CNS
[10] = system: DU-145 prostate

Compound: COC(=O)C1CCc2c1c(=O)n1c([nH]c3ccccc31)c2C#N (stereo unspecified)
- TGI [1]: > 100 µM
- TGI [2]: > 100 µM
- TGI [3]: > 100 µM
- TGI [4]: > 100 µM
- TGI [5]: > 100 µM
- TGI [6]: > 100 µM
- TGI [7]: > 100 µM
- TGI [8]: > 100 µM
- TGI [9]: > 100 µM

Compound: COc1ccc(C(c2cc(OC)c(OC)c(OC)c2)n2ccnc2)cc1O (stereo unspecified)
- GI50 [1]: 0.312 µM
- TGI [1]: 1.02 µM
- GI50 [2]: 0.18 µM
- TGI [2]: 0.646 µM
- GI50 [3]: 0.369 µM
- TGI [3]: > 100 µM
- GI50 [4]: 0.387 µM
- TGI [4]: > 100 µM
- GI50 [5]: 0.532 µM
- TGI [5]: > 100 µM
- GI50 [7]: 0.862 µM
- TGI [7]: > 100 µM
- GI50 [10]: 0.407 µM
- TGI [10]: > 100 µM
- GI50 [9]: 0.391 µM
- TGI [9]: > 100 µM

Compound: COc1ccc(NC(=O)C(=O)c2c(O)c3ccc(O)cc3oc2=O)c([N+](=O)[O-])c1
- TGI [1]: > 100 µM
- TGI [2]: > 100 µM
- TGI [3]: > 100 µM
- TGI [4]: > 100 µM
- TGI [5]: > 100 µM
- TGI [6]: > 100 µM
- TGI [7]: > 100 µM
- TGI [8]: > 100 µM

Compound: COc1ccc(C/C(=N/O)C(=O)NCCc2cc(Br)c(OCCCN(C)C)c(Br)c2)cc1Br
- TGI [1]: 19.1 µM
- TGI [2]: 31.6 µM
- TGI [3]: 48.1 µM
- TGI [4]: 31.8 µM
- TGI [5]: 32.6 µM
- TGI [6]: 34.7 µM
- TGI [8]: 55 µM
- TGI [9]: 32.8 µM

Compound: C[C@@H](NC1CCCC[C@H]1O)c1ccccc1 (stereo partly specified)
- TGI [1]: > 100 µM
- TGI [2]: > 100 µM
- TGI [3]: > 100 µM
- TGI [4]: > 100 µM
- TGI [5]: > 100 µM
- TGI [6]: > 100 µM
- TGI [7]: > 100 µM
- TGI [8]: > 100 µM
- TGI [9]: > 100 µM

Compound: COC(=O)CC(NC(=O)OCc1ccccc1)C(C(C)=O)C(=O)OCc1ccccc1 (stereo unspecified)
- TGI [2]: > 31.6 µM
- TGI [3]: > 31.6 µM
- TGI [4]: > 31.6 µM
- TGI [6]: > 100 µM
- TGI [7]: > 31.6 µM
- TGI [8]: 30.8 µM
- TGI [9]: > 31.6 µM

Compound: O=C(c1ccccc1)c1c(CC(O)c2ccccn2)n(C(=O)c2ccccc2)c2ccccc12 (stereo unspecified)
- TGI [1]: 30.1 µM
- TGI [2]: 38.1 µM
- TGI [3]: > 100 µM
- TGI [4]: > 100 µM
- TGI [5]: > 100 µM
- TGI [6]: 84.8 µM
- TGI [7]: > 100 µM
- TGI [8]: 43.3 µM
- TGI [9]: 58 µM

Compound: CC1=Nc2ccccc2S/C1=C(/C)NNS(=O)(=O)c1ccc(C)cc1
- TGI [1]: > 100 µM
- TGI [2]: > 100 µM
- TGI [3]: > 100 µM
- TGI [4]: > 100 µM
- TGI [5]: > 100 µM
- TGI [6]: > 100 µM
- TGI [7]: > 100 µM
- TGI [8]: > 100 µM
- TGI [9]: > 100 µM

Compound: CCN(CC)C(=O)Cc1c(C(=O)N(CC)CC)c(=O)nc2sccn12
- TGI [1]: > 100 µM
- TGI [2]: > 100 µM
- TGI [3]: > 100 µM
- TGI [4]: > 100 µM
- TGI [5]: > 100 µM
- TGI [6]: > 100 µM
- TGI [7]: > 100 µM
- TGI [8]: > 100 µM
- TGI [9]: > 100 µM

Compound: CC(C)(O)[C@@H]1CC[C@@]2(C)CCCC(O)C2(O)C1 (stereo partly specified)
- TGI [1]: > 100 µM
- TGI [2]: > 100 µM
- TGI [3]: > 100 µM
- TGI [4]: > 100 µM
- TGI [5]: > 100 µM
- TGI [6]: > 100 µM
- TGI [7]: > 100 µM
- TGI [8]: > 100 µM
- TGI [9]: > 100 µM

Compound: CCC(C)CCOC(=O)c1ccc(N=Cc2ccc(C=Nc3ccc(C(=O)OCCC(C)CC)cc3)cc2)cc1 (stereo unspecified)
- TGI [1]: > 100 µM
- TGI [2]: > 100 µM
- TGI [3]: > 100 µM
- TGI [4]: > 100 µM
- TGI [5]: > 100 µM
- TGI [6]: > 100 µM
- TGI [7]: > 100 µM
- TGI [8]: > 100 µM
- TGI [9]: > 100 µM

Compound: Cc1c(Cl)cccc1NC(=O)C(=O)C(C(=O)c1ccccc1-c1ccccc1)C1OC(=O)c2ccccc21 (stereo unspecified)
- TGI [1]: > 100 µM
- TGI [2]: 36.3 µM
- TGI [3]: 33.3 µM
- TGI [4]: 49 µM
- TGI [6]: 45 µM
- TGI [7]: > 100 µM
- TGI [8]: 42.1 µM
- TGI [9]: 29.2 µM

Compound: Cn1cc(C(=O)c2ccccc2)c2ccccc2c1=O
- TGI [1]: > 100 µM
- TGI [2]: > 100 µM
- TGI [3]: > 100 µM
- TGI [4]: > 100 µM
- TGI [6]: > 100 µM
- TGI [7]: > 100 µM
- TGI [8]: > 100 µM

Compound: COc1ccc(C2=C(Cl)c3cc(OC)c(OC)cc3C2OC)cc1OC (stereo unspecified)
- TGI [1]: > 100 µM
- TGI [2]: > 100 µM
- TGI [3]: > 100 µM
- TGI [4]: 49.2 µM
- TGI [5]: > 100 µM
- TGI [6]: > 100 µM
- TGI [7]: > 100 µM
- TGI [8]: > 100 µM

Compound: O=C(NCCCCCCCCCCCCNC(=O)c1cccc2ccccc12)c1cccc2ccccc12
- TGI [1]: > 100 µM
- TGI [2]: > 100 µM
- TGI [3]: > 71.7 µM
- TGI [4]: > 100 µM
- TGI [5]: > 73.6 µM
- TGI [6]: > 83 µM
- TGI [7]: > 100 µM
- TGI [8]: > 54.6 µM
- TGI [9]: > 59.5 µM

Compound: O=C1NC(Cc2ccc(O)cc2)C(=O)N2CCCC12 (stereo unspecified)
- TGI [1]: > 100 µM
- TGI [2]: > 100 µM
- TGI [3]: > 100 µM
- TGI [4]: > 100 µM
- TGI [5]: > 100 µM
- TGI [6]: > 100 µM
- TGI [7]: > 100 µM
- TGI [8]: > 100 µM
- TGI [9]: > 100 µM

Compound: Cc1nc(-n2nc(-c3ccccc3)cc2-c2ccccc2)sc1C(=O)/C=C/c1ccc(/C=C/C(=O)c2sc(-n3nc(-c4ccccc4)cc3-c3ccccc3)nc2C)cc1
- TGI [1]: 44.8 µM
- TGI [2]: 36.7 µM
- TGI [3]: 33.4 µM
- TGI [4]: > 100 µM
- TGI [5]: 42 µM
- TGI [6]: 51.8 µM
- TGI [7]: 28.6 µM
- TGI [9]: 34.3 µM
